For 2 molecules, IC50 and Km results are on record in publication PMC4591828, “Bacterial Rotary Export ATPases Are Allosterically Regulated by the Nucleotide Second Messenger Cyclic-di-GMP” (The Journal of Biological Chemistry, 2015).

In test [1] the test system is T1, FliIΔ1–18.
T1 construct: gene fliI; N-terminal truncation lacking first 18 residues, N-terminal His6 tag (pETNdeM-11), expressed in E. coli
In kind it is biochemical. The conditions noted are these: ATP substrate, 2 mM MgCl2, pH 8.0; allosteric.

For a further test, the target named is T2, HrcNHis (Pseudomonas syringae group genomosp. 3, UniProt Q887B5).
T2 construct: gene sctN; full-length, N-terminal His6 tag (pETNdeM-11), expressed in E. coli
T2 sequence (Q887B5 whole entry): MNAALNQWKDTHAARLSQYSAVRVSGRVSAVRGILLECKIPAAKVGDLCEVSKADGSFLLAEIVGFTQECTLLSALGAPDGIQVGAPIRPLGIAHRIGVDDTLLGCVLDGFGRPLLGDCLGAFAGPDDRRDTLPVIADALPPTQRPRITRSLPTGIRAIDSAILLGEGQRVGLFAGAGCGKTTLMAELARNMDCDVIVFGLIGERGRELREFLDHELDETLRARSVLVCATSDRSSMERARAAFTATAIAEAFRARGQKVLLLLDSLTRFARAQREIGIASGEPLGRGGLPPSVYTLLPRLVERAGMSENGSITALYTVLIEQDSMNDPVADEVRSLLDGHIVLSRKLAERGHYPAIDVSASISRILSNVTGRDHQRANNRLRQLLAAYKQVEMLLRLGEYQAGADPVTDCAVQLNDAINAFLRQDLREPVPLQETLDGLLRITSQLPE
Kind of test: pyruvate kinase/lactate dehydrogenase-linked ATPase assay. In kind it is biochemical.

The target of test [2] is T3, FliIHis.
T3 construct: gene fliI
Described as above. The class given is biochemical, Pseudomonas fluorescens. Particulars: 1 mM ATP, 2 mM MgCl2, pH 8.0; allosteric.

Test [3] relates to T3, FliIHis. The conditions noted are these: no cdG; 2 mM MgCl2, 10 mM KCl, pH 8.0.
For test [4], the system named is T4, FliIΔ1–18.
T4 construct: gene fliI
Particulars: no cdG; 2 mM MgCl2, 10 mM KCl, pH 8.0.

In the case of `Nc1nc2c(ncn2[C@@H]2O[C@@H]3COP(=O)(O)O[C@H]4[C@@H](O)[C@H](n5cnc6c(=O)[nH]c(N)nc65)O[C@@H]4COP(=O)(O)O[C@H]3[C@H]2O)c(=O)[nH]1` [cdG], the IC50 in the test with FliIΔ1–18 [1] was 48.8 ± 0.159 µM; against HrcNHis, 25.1 ± 1.14 µM; against FliIHis [2], 36.7 ± 1.13 µM.

On to `Nc1ncnc2c1ncn2[C@@H]1O[C@H](COP(=O)(O)OP(=O)(O)OP(=O)(O)O)[C@@H](O)[C@H]1O` [ATP], for which the Michaelis constant (Km) in the test on FliIHis [3] came to 0.48 ± 0.03 µM; in the test on FliIΔ1–18 [4] it was 0.45 ± 0.04 µM.
